Laboratory results as given in PMC5100569 (Nucleic Acids Research, 2016).

Key:
[1] = molecular target: T1, saCodY (Staphylococcus aureus, UniProt A7X1N2); experiment: surface plasmon resonance; format: binding
T1 sequence (A7X1N2 1-257): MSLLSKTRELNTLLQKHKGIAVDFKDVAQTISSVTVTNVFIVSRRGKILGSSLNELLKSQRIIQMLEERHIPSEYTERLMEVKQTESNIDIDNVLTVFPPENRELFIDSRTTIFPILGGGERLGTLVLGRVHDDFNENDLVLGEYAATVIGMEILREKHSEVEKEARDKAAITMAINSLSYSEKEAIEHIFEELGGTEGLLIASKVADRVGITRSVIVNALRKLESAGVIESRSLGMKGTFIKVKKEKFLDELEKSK

[2] = molecular target: T2, bcCodY (Bacillus cereus, UniProt Q819X8); experiment: size-exclusion chromatography, change of oligomeric state; format: binding; conditions: 1 mM GTP, pH 8.0, no Ile
T2 sequence (Q819X8 1-259): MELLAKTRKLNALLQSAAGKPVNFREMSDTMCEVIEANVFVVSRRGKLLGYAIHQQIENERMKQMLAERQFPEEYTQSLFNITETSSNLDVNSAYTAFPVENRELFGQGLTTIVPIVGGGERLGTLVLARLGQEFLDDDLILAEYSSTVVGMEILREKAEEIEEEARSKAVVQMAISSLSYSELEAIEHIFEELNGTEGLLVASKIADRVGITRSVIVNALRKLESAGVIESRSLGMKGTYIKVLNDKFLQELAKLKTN

[3] = molecular target: saCodY (Staphylococcus aureus, UniProt A7X1N2, E153A); experiment: biochemical
[4] = molecular target: saCodY (Staphylococcus aureus, UniProt A7X1N2, H70A/K158A/K47A/R45A/S43A); experiment: biochemical
[5] = molecular target: the molecule itself; experiment: SEC
[6] = molecular target: the molecule itself; experiment: crystal structure
[7] = molecular target: T3, saCodY E153A (Staphylococcus aureus, UniProt A7X1N2 1-257, E153A); experiment: EMSA
T3 sequence: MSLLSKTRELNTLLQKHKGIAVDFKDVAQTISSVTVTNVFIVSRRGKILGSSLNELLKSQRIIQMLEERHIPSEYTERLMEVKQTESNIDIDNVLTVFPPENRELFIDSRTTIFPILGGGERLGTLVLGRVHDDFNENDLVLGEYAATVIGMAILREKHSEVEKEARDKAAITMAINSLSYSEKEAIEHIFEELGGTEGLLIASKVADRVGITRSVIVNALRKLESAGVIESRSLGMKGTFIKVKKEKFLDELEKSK

[8] = molecular target: T4, saCodY 3P5A (Staphylococcus aureus, UniProt A7X1N2 1-257, S43A;R45A;K47A;H70A;K158A); experiment: EMSA
T4 sequence: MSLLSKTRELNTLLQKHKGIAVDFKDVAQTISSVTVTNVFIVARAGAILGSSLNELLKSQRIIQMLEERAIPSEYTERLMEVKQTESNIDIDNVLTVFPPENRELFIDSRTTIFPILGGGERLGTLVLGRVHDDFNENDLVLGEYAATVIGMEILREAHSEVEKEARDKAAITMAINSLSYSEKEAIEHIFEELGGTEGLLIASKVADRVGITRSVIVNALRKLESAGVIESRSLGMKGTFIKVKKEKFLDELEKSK

Q: With `Nc1nc2c(ncn2[C@@H]2O[C@H](COP(=O)(O)OP(=O)(O)O)[C@@H](O)[C@H]2O)c(=O)[nH]1` [GDP] as the molecule, how does the Kd [1] read?
A: 17 mM

Q: For `Nc1nc2c(ncn2[C@@H]2O[C@H](COP(=O)(O)OP(=O)(O)OP(=O)(O)O)[C@@H](O)[C@H]2O)c(=O)[nH]1` [GTP], which “size-exclusion chromatography, change of oligomeric state” value [2] is on record?
A: after incubation of saCodY and bcCodY with GTP, the proteins eluted at much smaller sizes

Q: What about the Kd [1] of the same molecule?
A: 2.26 mM

Q: And the Kd [3]?
A: 28 mM

Q: And the Kd [4]?
A: 35 mM

Q: With `Nc1nc2c(ncn2[C@@H]2O[C@H](COP(=O)(O)O)[C@@H](O)[C@H]2O)c(=O)[nH]1` [GMP] as the molecule, how does the Kd [1] read?
A: 20 mM

Q: `Nc1ncnc2c1ncn2[C@@H]1O[C@H](COP(=O)(O)OP(=O)(O)OP(=O)(O)O)[C@@H](O)[C@H]1O` [ATP] was tested. Which Kd [1] did it give?
A: 19 mM

B1: CodY from Staphylococcus aureus (saCodY), wild type (natural protein, UniProt A7X1N2 1-257, looked up)
chain: MSLLSKTRELNTLLQKHKGIAVDFKDVAQTISSVTVTNVFIVSRRGKILGSSLNELLKSQRIIQMLEERHIPSEYTERLMEVKQTESNIDIDNVLTVFPPENRELFIDSRTTIFPILGGGERLGTLVLGRVHDDFNENDLVLGEYAATVIGMEILREKHSEVEKEARDKAAITMAINSLSYSEKEAIEHIFEELGGTEGLLIASKVADRVGITRSVIVNALRKLESAGVIESRSLGMKGTFIKVKKEKFLDELEKSK
Q: B1 was tested. Which “stoichiometry N” value [5] did it give?
A: 4

Q: What about the “stoichiometry N” value [6] of the same molecule?
A: 2

B2: CodY from Bacillus cereus (bcCodY), wild type (natural protein, UniProt Q819X8 1-259, looked up)
chain: MELLAKTRKLNALLQSAAGKPVNFREMSDTMCEVIEANVFVVSRRGKLLGYAIHQQIENERMKQMLAERQFPEEYTQSLFNITETSSNLDVNSAYTAFPVENRELFGQGLTTIVPIVGGGERLGTLVLARLGQEFLDDDLILAEYSSTVVGMEILREKAEEIEEEARSKAVVQMAISSLSYSELEAIEHIFEELNGTEGLLVASKIADRVGITRSVIVNALRKLESAGVIESRSLGMKGTYIKVLNDKFLQELAKLKTN
Q: For B2, which “stoichiometry N” value [5] is on record?
A: 4

B3: ilvB promoter 45-mer (dsDNA)
DNA 1: CAGGTGGCGTCATGCAAGTCCCTGAGAATTTAATTTAATTTATTT
DNA 2: AAATAAATTAAATTAAATTCTCAGGGACTTGCATGACGCCACCTC
Q: What does the source list for B3?
A: binding signal [7]: 1.7 fold Kd vs WT without GTP; binding signal [8]: 3 fold Kd vs WT without GTP
